Measured values from the Kinase Knowledgebase extract (Sharma et al. 2016).

Assays:
CDK2 (human) [1] = target: CDK2 (human) (UniProt P24941); assay: Enzyme Assay
CDK2 (human) [2] = target: CDK2 (human) (UniProt P24941); assay: Enzyme Assay; remark: listed apart in the source

Structure (SMILES) | IC50 (CDK2 (human) [1]) | IC50 (CDK2 (human) [2])
COc1cccc(C(=O)c2sc(Nc3ccc(N4CCC(N5CCCC(O)C5)CC4)cc3)nc2N)c1 (configuration not stated) | 970 nM | –
CCc1cccc(C(=O)c2sc(Nc3ccc(N4CCC(N5CCNCC5)CC4)cc3)nc2N)c1 | 989 nM | –
Cc1cccc(C(=O)c2sc(Nc3ccc(N4CCC(N(C)C)CC4)cc3)nc2N)c1 | – | 3520 nM

More lines, now with the values ahead:

IC50 (CDK2 (human) [1]) | IC50 (CDK2 (human) [2]) | Structure (SMILES)
2920 nM | 2920 nM | Cc1cccc(C(=O)c2sc(Nc3ccc(N4CCC(N5CCCCC5)CC4)cc3)nc2N)c1
3490 nM | – | Nc1nc(Nc2ccc(N3CCC(N4CCCC4)CC3)cc2)sc1C(=O)c1ccc2c(c1)OCCO2
– | 2620 nM | Cc1cccc(C(=O)c2sc(Nc3ccc(N4CCC(N5CCCC5)CC4)cc3)nc2N)c1
